The source of these data is patent publication US6004959A, “Alkyloxyamino substituted fluorenones and their use as protein kinase-C inhibitors” (Hoechst Marion Roussel, Inc., priority 1997, dated 1999).

SMILES strings stand for the structures. Counter-ions that a name gives are not always drawn. Some results are limits rather than exact numbers.

For this test, the target named is Protein kinase C (PKC). The test is described as follows: Protein kinase C assay (96-well, H1 histone phosphorylation, 32P-ATP). The class given is biochemical. Particulars: PKC partially purified from rat brain; H1 histone 200 μg, 50 μM ATP, 5-7 min, room temperature; estimated error of IC50 less than 10%. On the procedure: Protein kinase C (PKC) was partially purified from the cytosol of rat brains as described by […]., Thromb. Res. 44:649-660, 1986. After removing the brains, all manipulations were carried out at 4° C. Briefly, the cerebellum was removed from 8-10 rat brains and each brain was then homogenized in 9 ml sucrose/EDTA (0.32 M sucrose, 1 mM EDTA, 5 mM Tris, pH 7.4). The pooled homogenate was then centrifuged at 1000×g for 10 min at 4° C., the pellet resuspended in the same volume of fresh sucrose/EDTA and recentrifuged at 1000×g for 10 min. at 4° C. The supernatants from each of these spins was pooled and centrifuged at 25,700×g for 30 min. at 4° C., and the resulting pellet homogenized in 20 ml of buffer A. (20 mM Tris pH 7.5, 0.1 mM calcium chloride, 0.4 mM leupeptin), at 4° C. Membrane associated PKC was then pelleted by centrifugation at 45,700×g at 4° C. for 15 min. and resuspended in 20 ml of buffer A. This step was repeated for a total of 3 centrifugations, discarding the supernatants and finally resuspending the pellet in 20 ml of buffer B (20 mM Tris pH 7.5, 1 mM EGTA, 1 mM EDTA, and 0.01 mM leupeptin) and stirring on ice for 30 min. Disassociated PKC was then collected by centrifuging at 45,700×g at 4° C. for 15 min. The pellet was discarded and the supernatant centrifuged at 100,000×g at 4° C. for 60 min. The pellet was again discarded and the supernatant was adjusted to remove all EDTA and EGTA by adding sufficient volume of a stock solution containing 100 mM each CaCl2 and MgCl2 to give a final concentration of 1 mM Ca^++ and 1 mM Mg^++. The resulting slurry was then applied to a 12 cm×1 cm DE-52 (DEAE cellulose, Whatman®) column previously equilibrated with buffer B. […] After washing the column with 70 ml of buffer B to remove unbound proteins, undesired proteins were eluted with 40 ml of buffer B containing 40 mM NaCl and the PKC containing fraction eluted with 20 ml of buffer B containing 150 mM NaCl. The PKC eluate was then concentrated to about 5 ml using an Amicon® ultrafiltration cell fitted with a PM-10 membrane, and excess NaCl removed by adding back 30 ml 5 mM Tris pH 7.4 and reconcentrating to a final volume of about 5 ml. The concentrated and desalted PKC prep was then adjusted to contain 10% glycerol and 0.5% Triton X-100 before aliquoting and storing 200 μL volumes at -70° C. Frozen preps were stable for at least 3 months at -70°0 C. Protein kinase C was assayed using a semi-automated 96-well plate procedure based upon the procedures of Aftab and Hait, and […] and Vial (Aftab, D. T. and W. N. Hait., Anal Biochem. 187:84-88. 1990.; […]. and Vial, H. J., Anal Biochem. 184:283-290. 1990). Briefly, each well of a 96 well "u" well microtiter plate received a total of 100 μl assay volume consisting of final concentrations of 30 mM Tris pH 7.4, 10 mM MgSO4, 1 mM EGTA, 200 μg Hl histone (Sigma Type III-S H5505), 50 μM ATP, 0.5 μCi 30 Ci/mmol ^32 P-ATP, and 30 μl PKC extract diluted in 5 mM Tris, pH 7.4 containing 1 mg per ml each of leupeptin, pepstatin and chymastatin, and 1 mM phenylmethylsulfonylfluoride. Reactions were started by adding the PKC extract and stopped by the addition of 50 μl 40% trichloroacetic acid, followed by 25 μl of 50 mM unlabelled ATP and 25 μl of 0.5% bovine serum albumin, and then collected on glass fiber filters using a Skatron® automatic micro cell harvester. Samples were washed for 30 seconds with 5% trichloroacetic acid, dried for 5 seconds on the harvester, and then transferred to scintillation vials for counting and subsequent data analysis. Reactions were run for five to seven minutes at room temperature. Data were fit to a competitive binding curve using the ENZFITTER® program (Biosoft). The error estimated for the IC50 values was less than 10%.

With `CCN(CC)CCOc1ccc2c(c1)C(=O)c1cccc(OCCN(CC)CC)c1-2` [I.D. No. 11,080, 2,5-Bis[(2-diethylamino)ethoxy]-fluoren-9-one], the IC50 (commonly the concentration that inhibits the measured activity by half) is 3 µM. In the case of `CN(C)CCOc1ccc2c(c1)C(=O)c1cccc(OCCN(C)C)c1-2` [I.D. No. 101,209, 2,5-Bis-(2-dimethylamino-ethoxy)-fluoren-9-one] it was 11 µM; in that of `CN(C)CCCOc1ccc2c(c1)C(=O)c1cccc(OCCCN(C)C)c1-2` [I.D. No. 102,352, 2,5-Bis-(3-dimethylamino-propoxy)-fluoren-9-one], 50 µM. The value for `CCCOc1ccc2c(c1)C(=O)c1cccc(OCCN(CC)CC)c1-2` [I.D. No. 103,049, 5-(2-Diethylamino-ethoxy)-2-propoxy-fluoren-9-one] was 9 µM.

As for `CCN(CC)CCCOc1cccc2c1-c1ccc(OC)cc1C2=O` [I.D. No. 103,388, 5-(3-Diethylamino-propoxy)-2-methoxy-fluoren-9-one], the IC50 is 56 µM. The value for `CCN(CC)CCOc1cccc2c1-c1ccc(OC)cc1C2=O` [I.D. No. 103,949, 5-(2-Diethylamino-ethoxy)-2-methoxy-fluoren-9-one] was 7 µM; that for `CCN(CC)CCOc1ccc2c(c1)-c1c(OCCN(CC)CC)cccc1C2=O` [I.D. No. 104,004, 3,5-Bis[(2-diethylamino)ethoxy]-fluoren-9-one] was 4 µM. On to `CCN(CC)CCOc1cccc2c1C(=O)c1cccc(OCCN(CC)CC)c1-2` [I.D. No. 104,147, 1,5-Bis[(diethylamino)ethoxy]-fluoren-9-one], for which the IC50 was 15 µM. As for `CCCOc1cc(OC)c2c(c1N)C(=O)c1cccc(OCCN3CCOCC3)c1-2` [I.D. No. 104,427, 5-[2-(morpholino-4-yl)-ethoxy]-1-amino-4-methoxy-2-propyloxy-fluoren-9-one hydrochloride], the 50% inhibitory concentration (IC50) was 2.3 µM. The value for `CCCOc1cc(OC)c2c(c1)C(=O)c1cccc(OCCN3CCOCC3)c1-2` [I.D. No. 104,439, 5-[2-(morpholino-4-yl)-ethoxy]-4-methoxy-2-propyloxy-fluoren-9-one hydrochloride] was > 10 µM; that for `CCN(CC)CCOc1cccc2c1-c1c(OCCN(CC)CC)cccc1C2=O` [I.D. No. 104,488] was 92 µM; that for `CCN(CC)CCOc1cccc2c1-c1c(OC)cccc1C2=O` [I.D. No. 104,652, 4-(2-diethylamino-ethoxy)-5-methoxy-fluoren-9-one] was 1 µM. Consider `CCCOc1cc(OC)c2c(c1)C(=O)c1cccc(OCCN(CC)CC)c1-2` [I.D. No. 104,952, 5-(2-diethylamino-ethoxy)-4-methoxy-2-propoxy-fluoren-9-one], for which the IC50 is 0.576 µM. The value for `CCN(CC)CCOc1cccc2c1-c1c(OC)cc(OC)c(N)c1C2=O` [I.D. No. 105,473, 1-Amino-5-(2-diethylamino-ethoxy)-2,4-dimethoxy-fluoren-9-one hydrochloride] was 0.16 µM; that for `CCCOc1cc(OC)c2c(c1N)C(=O)c1cccc(OCCN(CC)CC)c1-2` [I.D. No. 105,509, 1-Amino-5-(2-diethylamino-ethoxy)-4-methoxy-2-propoxy-fluoren-9-one] was 0.079 µM; that for `CCN(CC)CCOc1cc(OC)c2c(c1)C(=O)c1cccc(OCCN(CC)CC)c1-2` [I.D. No. 105,711, 2,5-bis-(2-diethylamino-ethoxy)-4-methoxy-fluoren-9-one] was 1.1 µM. The value for `CCN(CC)CCOc1cccc2c1-c1c(OC)cc(OC)cc1C2=O` [I.D. No. 105,950, 5-(2-Diethylamino-ethoxy)-2,4-dimethoxy-fluoren-9-one] was 0.9 µM.
